Where a SMILES comes first, the peptide text is derived from it. The star is where a group is joined. Galloyl = O=C(c1cc(O)c(O)c(O)c1)*
Experiments:
[1] = tested on: HCVcc particles released from treated cells, naïve Huh-7.5 cells; experiment: Infectivity assay of released particles (focus forming units); type: cell-based, hepatitis C virus
Description: (§1) Figure 6 GA-Hecate effect on HCV Release and infectivity. (A) HCV-infected Huh-7.5 cells were treated for 24 h with GA-Hecate. RNA was isolated and summited to qPCR for HCV 5′ UTR. Intracellular HCV expression was normalized by GAPDH, and extracellular HCV expression was calculated by absolute quantification. The difference between the intra and extracellular RNA expression represents the HCV release. Bars represent triplicate samples of three independent assays. Naringenin (200 μM) was used as a positive control of HCV release inhibition and water was a negative control of HCV release inhibition. ^aP < 0.001 vs Control (−), intracellular. ^bP < 0.001 vs Control (−), extracellular. F = 22.58, df (row factor) = 4. (B) Infectivity. HCV-infected Huh-7.5 cells were treated for 24 h with GA-Hecate, and then the supernatant was collected and used to infect naïve Huh-7.5 cells. The capacity of HCVcc particles to generate a new infection after GA-Hecate treatment is represented by the bars. […]
To assess the effect of GA-Hecate on HCV virion infectivity, a similar process to release/assembly was done and the supernatant (extracellular content) was collected and used to infect naïve Huh-7.5 cells. HCV infectivity was evaluated by the focus forming units assay, following an indirect immunofluorescence (IFI) assay for HCV NS5A as previously described by Batista et al.[35].

[2] = Permeabilization of LUVs, carboxyfluorescein release (lipid droplet mimetic); settings: POPC:Cholesterol 9:1
From the text: Figure 8 Permeabilization of LUVs. (A) Percentage of carboxyfluorescein release in POPC:POPS (9:1) Post addition of LUVs at different concentrations of Hecate and GA-Hecate. (B) Percentage of carboxyfluorescein release results in POPC:Cholesterol (9:1) LUVs after the addition of different concentrations of Hecate and GA-Hecate. The bars indicate SD.
Phosphatidylcholine:Cholesterol (POPC:Cholesterol - 9:1; m:m) and phosphatidylcholine:phosphatidylserine (POPC:POPS - 9:1; m:m) vesicles, which mimic lipid droplets and the virus envelope, respectively, were prepared at a concentration of 15 mmol·L^−1. Each mixture was submitted to lipid solubilization in chloroform/methanol (4:1; v:v) and subsequent evaporation by nitrogen gas flow, resulting in the formation of a lipid film. The product evaporated using a vacuum procedure for complete removal of the solvents and then a solution containing the fluorophore carboxyfluorescein (CF; 50 mM) was added. The mixture was warmed up to 60 °C, sonicated and agitated for equal periods for 10 min to allow for the formation of vesicles encapsulated with CF. Following this, the mixture was processed in an extruder machine (Avanti Polar Lipids) to obtain large unilamellar vesicles. The obtained solution was then applied to a size exclusion column with Sephadex G20 resin for separation of the unencapsulated CF. […]

[3] = tested on: Huh-7.5 cells harboring SGR-JFH-1 Feo; experiment: MTT cytotoxicity in hepatocytes; type: cell-based, human
From the text: Figure 2 Hecate and its derivative-peptide effects on subgenomic HCV genotype 2a replication and hepatotoxicity. (A) Hecate. (B) Lys- Hecate. (C) GA-Hecate. (D) GA2-Hecate. (E) Acetyl-Hecate. (F) Glu-Hecate. Luciferase assays report HCV replication and MTT assays report the viability of Huh-7.5 cells harboring SGR-JFH-1 Feo under peptide treatment. Water was used as a negative control of virus replication inhibition and cell death (Control (−)), and Cyclosporine A was used as a positive control for virus replication inhibition (Control (+)). Red dotted lines represent the arbitrary threshold of 80% cell viability, and blue dotted lines represent the maximum inhibition presented by Hecate at the maximum safe concentration. Bars represent triplicates of the three independent assays. ***P < 0.01 vs control (−).
Peptide cytotoxicity profiles were measured by the MTT [3-(4,5-dimethylthiazol- 2-yl)-2,5-diphenyl tetrazolium bromide] (Sigma–Aldrich) method. Twenty-four hours before treatment, 5 × 10^3 SGR-harboring cell lines (SGR-Feo-JFH-1 or S52/SG-neo) were cultured with supplemented DMEM in a 96-multi-well plate and incubated at 37 °C in a humidified 5% CO2 incubator. On the subsequent day, peptide-containing medium was added at the following final concentrations: 2.5, 5, 10 and 20 μM. The tested peptides were Hecate and its derivatives, which included the following: lysine addition (Lysine-Hecate/Lys-Hecate); one or two molecules of Gallic Acid (GA-Hecate and GA2-Hecate); one acetyl radical (Acetyl-Hecate) or Glutamic acid (Glu-Hecate). After 48 h of incubation, peptide-media was removed, and MTT at a final concentration of 1 mg/mL was added to the wells, incubated for 30 minutes and subsequently replaced by 100 μL of DMSO. Absorbance was measured at 562 nm, using a plate spectrophotometer (FLUOstar Omega/BMG LABTECH, Offenburg, BW, DE). Cell viability was calculated considering water-treated cells (peptides diluent) as a negative control. All experiments were performed in triplicate and in three independent replicates. Further assays were performed considering at least 80% viability of the treated cells.
GA-Hecate toxicity and viral inhibition profile in 24, 48 and 72h post-treatment in […]
GA-Hecate toxicity and viral inhibition capacity were evaluated at 24, 48 and 72h post-treatment. Tested concentrations were 1.25; 2.5; 5; 10; 20; and 40 µM. At the end of every incubation, cells were stained using MTT as previously described. Similarly, at every time point, treated cells were lysed using PLB and summited to Luminescence analysis as previously described. […]

[4] = tested on: JFH-1-infected Huh-7.5 cells; experiment: HCV release/assembly evaluation (qPCR intra/extracellular HCV RNA); type: cell-based, hepatitis C virus; settings: 24 h treatment; 5, 10 and 20 μM, not dose-dependent
Description: as §1
JFH-1-infected Huh-7.5 cells were used to evaluate the GA-Hecate effect on virus release/assembly. […] After treatment, the intracellular and extracellular RNA content was isolated following the TRIzol reagent protocol and quantified by qPCR of the HCV 5′ UTR region (forward: 5′ CGGGAGAGCCATAGTGG; reverse, 5′ […]; probe: 5′-FAM-[…]-TAMRA-3) using TaqMan® Universal PCR Master Mix (Thermo Scientific, CA, USA).

CC(C)C[C@H](NC(=O)[C@H](C)NC(=O)[C@H](CCCCN)NC(=O)[C@H](CCCCN)NC(=O)[C@H](CC(C)C)NC(=O)[C@H](C)NC(=O)[C@H](CCCCN)NC(=O)[C@H](CCCCN)NC(=O)[C@H](CC(C)C)NC(=O)[C@H](CCCCN)NC(=O)[C@H](CCCCN)NC(=O)[C@H](CC(C)C)NC(=O)[C@H](C)NC(=O)[C@H](CCCCN)NC(=O)[C@H](CCCCN)NC(=O)[C@H](CC(C)C)NC(=O)[C@H](C)NC(=O)[C@H](CCCCN)NC(=O)[C@H](CC(C)C)NC(=O)[C@H](C)NC(=O)[C@H](CC(C)C)NC(=O)[C@H](C)NC(=O)[C@H](Cc1ccccc1)NC(=O)c1cc(O)c(O)c(O)c1)C(N)=O [GA-Hecate] (Galloyl-FALALKALKKALKKLKKALKKAL-NH2)
infection inhibition by released particles (infectivity) ([1]; 20 μM, supernatant of cells treated 24 h on naïve Huh-7.5): approximately 100% | share of released HCV able to generate a new infection ([1]; supernatant of GA-Hecate-treated cells): less than 1% | permeabilization effect relative to Hecate (fold higher) [2]: approximately 2 fold | permeabilization of LUVs (carboxyfluorescein release) ([2]; peptide 0.1 μM, 1% Triton = 100%, once in triplicate): approximately 70% | cell toxicity ([3]; 1.25 µM, 72 h): no cell toxicity | cell death ([3]; 20 μM): 20% | CC50 (50% cytotoxic concentration) ([3]; 48 h incubation, SGR-Feo-JFH-1 Huh-7.5 cells, triplicate in three independent assays): 34.95 µM | CC50 72 h post-treatment ([3]; 72 h, 1.25-40 µM): 19 µM | maximum non-toxic (safe) concentration in hepatocytes ([3]; arbitrary threshold of 80% cell viability, 48 h): 20 µM | inhibition of virus release [4]: approximately 50%

Reference: article PMC6156508, “GA-Hecate antiviral properties on HCV whole cycle represent a new antiviral class and open the door for the development of broad spectrum antivirals” (Scientific Reports, 2018)
